“Also recorded” adds a separate entry of the source.
Experiment: Slurry experiments (SLC, SL, SLT) started with crystalline form 1; wet powders analyzed by XRPD
Type: physicochemical
Settings: for Resulting crystalline form SLC: aged at 5° C. under magnetic stirring; for Resulting crystalline form SLT: aged at 40° C. in shaker at 700 rpm; for Resulting crystalline form SL: aged at room temperature under magnetic stirring
Method: The slurry experiments (SLC, SL and SLT) were carried out with the crystalline form 1 in different conditions. 15 mg of starting material were mixed with 200 μl of solvent or solvent mixture (at a concentration of about 75 mg/ml). The mixture was homogenized by vortexing for 10 seconds. The resulting suspensions were aged at different conditions: a) at 5° C. under magnetic stirring (SLC), b) at room temperature under magnetic stirring (SL), and c) at 40° C. in the shaker at 700 rpm (SLT). During the aging time, the samples were checked regularly, and solvent was added if needed. After completing the aging time, the vials were opened, and the (wet) powders were analyzed by XRPD.

[1] = slurry in 2-Butanone, about 75 mg/ml
[2] = slurry in 2-Ethoxy ethanol, about 75 mg/ml
[3] = slurry in 2-Methyltetrahydrofuran, about 75 mg/ml
[4] = slurry in Acetone/Water (86:14 vol %), water activity 0.75, about 75 mg/ml
[5] = slurry in Acetonitrile/Water (96:4 vol %), water activity 0.60, about 75 mg/ml
[6] = slurry in Ethanol, about 75 mg/ml
[7] = slurry in Ethanol/Water (26:74 vol %), water activity >0.9, about 75 mg/ml
[8] = slurry in Methanol/Water (20:80 vol %), water activity >0.9, about 75 mg/ml
[9] = slurry in THF/Water (90:10 vol %), water activity 0.88, about 75 mg/ml
[10] = slurry in Water (water activity 1), about 75 mg/ml

SMILES: COc1cccc2c1CCOC2C1=NCCN1.O=S(=O)(O)O (stereo not shown) [Form 1, 2-(5-methoxyisochroman-1-yl)-4,5-dihydro-1H-imidazole sulfate crystalline form 1]
- Resulting crystalline form SLC [1]: Form 1
- Resulting crystalline form SLT [1]: Form 1
- Resulting crystalline form SL [1]: Form 1
- Resulting crystalline form SLT [2]: Form 4
- Resulting crystalline form SL [2]: Form 4
- Resulting crystalline form SLC [3]: Form 1
- Resulting crystalline form SLT [3]: Form 1
- Resulting crystalline form SL [3]: Form 1
- Resulting crystalline form SLC [4]: Form 1
- Resulting crystalline form SLT [4]: Form 1
- Resulting crystalline form SL [4]: Form 1
- Resulting crystalline form SLC [5]: Form 1
- Resulting crystalline form SLT [5]: Form 1
- Resulting crystalline form SL [5]: Form 1
- Resulting crystalline form SLC [6]: Form 1
- Resulting crystalline form SLT [6]: Form 1
- Resulting crystalline form SL [6]: Form 1
- Resulting crystalline form SLC [7]: Form 2; also recorded: (+Form 1)
- Resulting crystalline form SLT [7]: Form 2
- Resulting crystalline form SL [7]: Form 2
- Resulting crystalline form SLC [8]: Form 2
- Resulting crystalline form SLT [8]: Form 2
- Resulting crystalline form SL [8]: Form 2
- Resulting crystalline form SLC [9]: Form 1
- Resulting crystalline form SLT [9]: Form 1
- Resulting crystalline form SLC [10]: Form 2
- Resulting crystalline form SLT [10]: Form 2
- Resulting crystalline form SL [10]: Form 2

Reference: patent US20250179056A1, “NOVEL SULFATE SALT FORMS OF ISOCHROMAN-IMIDAZOLE STRUCTURED ALPHA-2A ADRENOCEPTOR AGONIST” (ORION CORPORATION, priority 2022, published 2025)
